Results from article PMC8286840, “Identifying SARS-CoV-2 antiviral compounds by screening for small molecule inhibitors of Nsp3 papain-like protease” (Biochemical Journal, 2021).
Where a name gives a salt, the structure may show the parent alone. Read-outs that look alike come from different tables or passages of the source.

Assays:
[1] = biological target: T1, SARS-CoV-2 PLpro (nsp3 1564–1878) (Severe acute respiratory syndrome coronavirus 2, UniProt P0DTD1); experiment: biochemical; parameters: FRET-quenched peptide (Pro3) cleavage by PLpro, 10 min pre-incubation, slope over 20 min, normalised to no-compound control; conditions: high concentration screen, read-out: % of control remaining
[2] = biological target: T1, SARS-CoV-2 PLpro (nsp3 1564–1878); experiment: biochemical; parameters: FRET-quenched peptide (Pro3) cleavage by PLpro, 10 min pre-incubation, slope over 20 min, normalised to no-compound control; conditions: low concentration screen, read-out: % of control remaining

`CCCCC[C@H](O)/C=C/C1=C(C/C=C\CCCC(=O)O)C(=O)CC1` [Prostaglandin B2] was tested. Which remaining activity at 3.75 µM ([1]; Well no.=4471) did it give?
The remaining activity at 3.75 µM was 101%.

What about the remaining activity at 1.25 µM ([2]; Well no.=4471) of the same compound?
The remaining activity at 1.25 µM was 96.7%.

Which results are given for `CC(CN(C)C)CN1c2ccccc2CCc2ccccc21` (centres unmarked) [Trimipramine maleate]?
remaining activity at 3.75 µM ([1]; Well no.=1333): 102%; remaining activity at 1.25 µM ([2]; Well no.=1333): 104%

Which remaining activity at 3.75 µM ([1]; Well no.=3597) does the source give for `COc1ccc(-c2cc(=O)c3c(O)cc(O[C@@H]4O[C@H](CO[C@@H]5O[C@@H](C)[C@H](O)[C@@H](O)[C@H]5O)[C@@H](O)[C@H](O)[C@H]4O)cc3o2)cc1O` [Diosmin] here?
Its remaining activity at 3.75 µM is 97.4%.

What about the remaining activity at 1.25 µM ([2]; Well no.=3597) of the same compound?
The remaining activity at 1.25 µM was 95.3%.

With `CCCOc1ccc2[nH]c(NC(=O)OC)nc2c1` [Oxibendazole] as the compound, how does the remaining activity at 3.75 µM ([1]; Well no.=2061) read?
The remaining activity at 3.75 µM was 98.3%.

And the remaining activity at 1.25 µM ([2]; Well no.=2061)?
The remaining activity at 1.25 µM was 99%.

With `CN1[C@@H]2CCC[C@H]1C[C@@H](NC(=O)c1nn(C)c3ccccc13)C2` [Granisetron (Hydrochloride)] as the compound, how does the remaining activity at 3.75 µM ([1]; Well no.=6223) read?
The remaining activity at 3.75 µM was 102%.

And the remaining activity at 1.25 µM ([2]; Well no.=6223)?
Its remaining activity at 1.25 µM is 104%.

For `O=C(O)CCC(=O)N1CCC[C@H]1C(=O)O` [N-Succinyl-L-proline], which remaining activity at 3.75 µM ([1]; Well no.=1506) is on record?
Its remaining activity at 3.75 µM is 91.2%.

What about the remaining activity at 1.25 µM ([2]; Well no.=1506) of the same compound?
Its remaining activity at 1.25 µM is 89.9%.

How did the remaining activity at 3.75 µM ([1]; Well no.=7041) turn out when `CN1CCN(c2cc(-c3ccccc3)nc(N)n2)CC1` [VUF10460] was run?
The remaining activity at 3.75 µM was 105%.

And the remaining activity at 1.25 µM ([2]; Well no.=7041)?
The remaining activity at 1.25 µM was 105%.

What does the source list for `CC1(C)CCC(c2ccc(Cl)cc2)=C(CN2CCN(c3ccc(C(=O)NS(=O)(=O)c4ccc(N[C@H](CCN5CCOCC5)CSc5ccccc5)c(S(=O)(=O)C(F)(F)F)c4)cc3)CC2)C1` [Navitoclax]?
remaining activity at 3.75 µM ([1]; Well no.=6580): 92.2%; remaining activity at 3.75 µM ([1]; Well no.=8224): 94.8%; remaining activity at 1.25 µM ([2]; Well no.=6580): 93.1%; remaining activity at 1.25 µM ([2]; Well no.=8224): 103%

`Cc1c2c(nn1C)CSCc1cc(n(C)n1)CSc1cc(c3ccccc3c1)OCCCc1c(C(=O)O)n(C)c3c-2c(Cl)ccc13` [AZD-5991] was tested. Which remaining activity at 3.75 µM ([1]; Well no.=7076) did it give?
The remaining activity at 3.75 µM was 98.9%.

And the remaining activity at 1.25 µM ([2]; Well no.=7076)?
Its remaining activity at 1.25 µM is 101%.

Which results are given for `CC(=O)NS(=O)(=O)c1ccc(N)cc1` [Sulfacetamide Sodium]?
remaining activity at 3.75 µM ([1]; Well no.=4740): 106%; remaining activity at 1.25 µM ([2]; Well no.=4740): 106%

Which results are given for `COc1ccc2c(c1OC)C(=O)O[C@H]2[C@@H]1c2cc3c(cc2CCN1C)OCO3` [(+)-Hydrastine]?
remaining activity at 3.75 µM ([1]; Well no.=614): 97.7%; remaining activity at 1.25 µM ([2]; Well no.=614): 96.4%

Which remaining activity at 3.75 µM ([1]; Well no.=5775) does the source give for `CC(C)CNCc1ccc(-c2ccccc2S(=O)(=O)N2CCCC2)cc1` [PF-04455242 hydrochloride] here?
Its remaining activity at 3.75 µM is 107%.

What about the remaining activity at 1.25 µM ([2]; Well no.=5775) of the same compound?
The remaining activity at 1.25 µM was 106%.

Which remaining activity at 3.75 µM ([1]; Well no.=5355) does the source give for `NCC[C@H](O)C(=O)N[C@@H]1C[C@H](N)[C@@H](O[C@H]2O[C@H](CN)[C@@H](O)[C@H](O)[C@H]2O)[C@H](O)[C@H]1O[C@H]1O[C@H](CO)[C@@H](O)[C@H](N)[C@H]1O` [Amikacin hydrate] here?
Its remaining activity at 3.75 µM is 101%.

And the remaining activity at 1.25 µM ([2]; Well no.=5355)?
Its remaining activity at 1.25 µM is 97.3%.

With `CC1(C)S[C@@H]2[C@H](NC(=O)[C@H](C(=O)O)c3ccsc3)C(=O)N2[C@H]1C(=O)O` [Ticarcillin (disodium)] as the compound, how does the remaining activity at 3.75 µM ([1]; Well no.=7782) read?
Its remaining activity at 3.75 µM is 109%.

And the remaining activity at 1.25 µM ([2]; Well no.=7782)?
The remaining activity at 1.25 µM was 105%.

How did the remaining activity at 3.75 µM ([1]; Well no.=5446) turn out when `Nc1cc(Nc2ccc(S(N)(=O)=O)cc2)ncn1` [PNU112455A] was run?
The remaining activity at 3.75 µM was 102%.

And the remaining activity at 1.25 µM ([2]; Well no.=5446)?
Its remaining activity at 1.25 µM is 100%.

How did the remaining activity at 3.75 µM ([1]; Well no.=6951) turn out when `COc1ccc(-c2cccc(C(=O)N(C)C)c2)cc1S(=O)(=O)Nc1cccc(NCCNC(=O)c2cccc(C)c2)c1` [Orexin 2 Receptor Agonist] was run?
Its remaining activity at 3.75 µM is 103%.

What about the remaining activity at 1.25 µM ([2]; Well no.=6951) of the same compound?
Its remaining activity at 1.25 µM is 105%.

What does the source list for `Nc1nc2c(ncn2COCCO)c(=O)[nH]1` [Acycloguanosine]?
remaining activity at 3.75 µM ([1]; Well no.=2073): 106%; remaining activity at 1.25 µM ([2]; Well no.=2073): 103%

Which remaining activity at 3.75 µM ([1]; Well no.=2527) does the source give for `O=S(=O)(c1c(O)c(Cl)cc(Cl)c1Cl)c1c(O)c(Cl)cc(Cl)c1Cl` [p38 MAP Kinase Inhibitor IV] here?
The remaining activity at 3.75 µM was 103%.

What about the remaining activity at 1.25 µM ([2]; Well no.=2527) of the same compound?
Its remaining activity at 1.25 µM is 97.2%.

For `CCCOc1ccc(/C=C2/SC(=O)NC2=O)cc1` [PIM1/2 Kinase Inhibitor VI], which remaining activity at 3.75 µM ([1]; Well no.=2571) is on record?
The remaining activity at 3.75 µM was 97%.

What about the remaining activity at 1.25 µM ([2]; Well no.=2571) of the same compound?
The remaining activity at 1.25 µM was 97.6%.

With `CN1CCN(c2ccc3nc(-c4cc(C(C)(C)C)c(OCCCC(=O)NCCCN=[N+]=[N-])c(C(C)(C)C)c4)[nH]c3c2)CC1` [MIR96-IN-1] as the compound, how does the remaining activity at 3.75 µM ([1]; Well no.=7014) read?
The remaining activity at 3.75 µM was 81.9%.

What about the remaining activity at 1.25 µM ([2]; Well no.=7014) of the same compound?
Its remaining activity at 1.25 µM is 94.6%.

For `CCCCCNC(=N)N/N=C/c1c[nH]c2ccc(OC)cc12` [Tegaserod (maleate)], which remaining activity at 3.75 µM ([1]; Well no.=6615) is on record?
The remaining activity at 3.75 µM was 104%.

What about the remaining activity at 1.25 µM ([2]; Well no.=6615) of the same compound?
The remaining activity at 1.25 µM was 103%.

Which results are given for `CC(=O)/C(C)=N/O` [2,3-Butanedione monoxime]?
remaining activity at 3.75 µM ([1]; Well no.=22): 105%; remaining activity at 1.25 µM ([2]; Well no.=22): 103%

Which remaining activity at 3.75 µM ([1]; Well no.=5457) does the source give for `CCOC(=O)[C@@H](N)CCC(=O)N[C@@H](CSCc1ccccc1)C(=O)N[C@@H](C(=O)OCC)c1ccccc1` [ethyl N5-((R)-3-(benzylthio)-1-(((R)-2-ethoxy-2-oxo-1-phenylethyl)amino)-1-oxopropan-2-yl)-L-glutaminate] here?
Its remaining activity at 3.75 µM is 108%.

And the remaining activity at 1.25 µM ([2]; Well no.=5457)?
The remaining activity at 1.25 µM was 105%.

For `O=C(O[C@H]1C[N+]2(CCCOc3ccccc3)CCC1CC2)C(O)(c1cccs1)c1cccs1` [Aclidinium Bromide], which remaining activity at 3.75 µM ([1]; Well no.=5358) is on record?
Its remaining activity at 3.75 µM is 97.4%.

What about the remaining activity at 1.25 µM ([2]; Well no.=5358) of the same compound?
Its remaining activity at 1.25 µM is 100%.

`CCc1cccc2c1c(O)c(C(=O)N(CC)c1ccccc1)c(=O)n2C` [Paquinimod] was tested. Which remaining activity at 3.75 µM ([1]; Well no.=8373) did it give?
Its remaining activity at 3.75 µM is 92.5%.

What about the remaining activity at 1.25 µM ([2]; Well no.=8373) of the same compound?
Its remaining activity at 1.25 µM is 92.6%.

Which remaining activity at 3.75 µM ([1]; Well no.=5600) does the source give for `Cc1ccccc1C(C(=O)NC1CCCCC1)N(C(=O)Cn1ccnc1C)c1cccc(F)c1` (centres unmarked) [N-cyclohexyl-2-(N-(3-fluorophenyl)-2-(2-methyl-1H-imidazol-1-yl)acetamido)-2-(o-tolyl)acetamide] here?
The remaining activity at 3.75 µM was 95.4%.

What about the remaining activity at 1.25 µM ([2]; Well no.=5600) of the same compound?
Its remaining activity at 1.25 µM is 93.6%.

`CN1Cc2sccc2C(c2ccc(O)c(O)c2)C1` (centres unmarked) [SKF 89145 hydrobromide] was tested. Which remaining activity at 3.75 µM ([1]; Well no.=1218) did it give?
Its remaining activity at 3.75 µM is 98.3%.

What about the remaining activity at 1.25 µM ([2]; Well no.=1218) of the same compound?
Its remaining activity at 1.25 µM is 92.6%.

For `CN1c2cc3c(cc2N=C(c2ccc(C(=O)O)cc2)c2ccccc21)C(C)(C)CCC3(C)C` [4-(5,7,7,10,10-pentamethyl-7,8,9,10-tetrahydro-5H-naphtho[2,3-b][1,4]benzodiazepin-13-yl)benzoic acid], which remaining activity at 3.75 µM ([1]; Well no.=5556) is on record?
The remaining activity at 3.75 µM was 100%.

What about the remaining activity at 1.25 µM ([2]; Well no.=5556) of the same compound?
The remaining activity at 1.25 µM was 104%.

For `COc1ccc2c(c1OC)C(=O)O[C@@H]2[C@H]1c2c(cc3c(c2OC)OCO3)CCN1C` (racemic), which remaining activity at 3.75 µM ([1]; Well no.=3446) is on record?
The remaining activity at 3.75 µM was 90.7%.

And the remaining activity at 1.25 µM ([2]; Well no.=3446)?
Its remaining activity at 1.25 µM is 92.3%.

What does the source list for `Cc1ccc(NC(=O)CCCCCC(=O)Nc2ccccc2N)cc1` [Pimelic Diphenylamide 106 (analog)]?
remaining activity at 3.75 µM ([1]; Well no.=8230): 102%; remaining activity at 1.25 µM ([2]; Well no.=8230): 104%

For `CC(C)CN(C[C@@H](O)[C@H](Cc1ccccc1)NC(=O)O[C@H]1CCOC1)S(=O)(=O)c1ccc(N)cc1` [Amprenavir], which remaining activity at 3.75 µM ([1]; Well no.=2242) is on record?
The remaining activity at 3.75 µM was 102%.

And the remaining activity at 3.75 µM ([1]; Well no.=8648)?
Its remaining activity at 3.75 µM is 95.7%.

And the remaining activity at 1.25 µM ([2]; Well no.=2242)?
The remaining activity at 1.25 µM was 101%.

What about the remaining activity at 1.25 µM ([2]; Well no.=8648) of the same compound?
The remaining activity at 1.25 µM was 94.1%.

How did the remaining activity at 3.75 µM ([1]; Well no.=6940) turn out when `NCCc1cc(O)c(O)cc1O` [Oxidopamine (hydrobromide)] was run?
The remaining activity at 3.75 µM was 92.3%.

What about the remaining activity at 1.25 µM ([2]; Well no.=6940) of the same compound?
Its remaining activity at 1.25 µM is 92%.
